This note sets out measurements from US8969554B2, “6-acyl-1,2,4-triazine-3,5-dione derivative and herbicides” (Kumiai Chemical Industry Co., Ltd., priority 2010, dated 2015).

Holding throughout (format): in vivo
What all share (parameters):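 index 0 to 10 in 10% steps of herbicidal effect with 10 meaning complete death and 0 below 10%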

The test system of one test is Echinochloa oryzicola. Description: Herbicidal activity by paddy field soil treatment (Test Example 1). The following applies: 1000 g of effective component per hectare, evaluated on day 21 after the treatment, criteria of Table 72. Put shortly: (§1)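 Flooded-paddy pre-emergence assay at 1000 g a.i./ha, applied to the water surface one day after sowing; visual herbicidal score at day 21 in greenhouse.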

For another test, the system named is Monochoria vaginalis. The test is described as above. As to conditions: 1000 g of effective component per hectare, evaluated on day 21 after the treatment, criteria of Table 72. In outline: as §1
In another test the test system is Scirpus juncoides Rocxb. The test is described as above. As to conditions: applied on water surface, 1000 g of effective component per hectare, day 21 after the treatment. Put shortly: as §1
Test [1] has as its system A. retroflexus. Description: Herbicidal activity by field soil treatment (Test example 2). As to conditions: 1000 g effective component per hectare, day 21 after the treatment. In outline:
(§2)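 A wettable powder formulation, diluted with water, is applied to soil over just-sown seeds at an effective rate of 1000 g/ha. Effects are judged 21 days later after greenhouse growth.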

The test system of test [2] is Echinochloa crus-galli. The description is as above. The following applies: 1000 g effective component per hectare, day 21 after the treatment. Put shortly:
as §2

For test [3], the system named is Indian millet. Described as above. The following applies: 1000 g effective component per hectare, day 21 after the treatment. In outline: as §2
Test [4] concerns A. retroflexus. Description: Herbicidal activity by field foliage treatment (Test example 3). The following applies: 1000 g effective component per hectare, day 14 after the treatment. In outline:
(§3)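 Test plants, grown from seed for two weeks in a greenhouse, are treated by foliar application of a wettable-powder formulation in water at a rate of 1000 g effective component per hectare. Damage is assessed 14 days later.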

The subject of test [5] is Indian millet. Described as above. The following applies: 1000 g effective component per hectare, day 14 after the treatment. In outline: as §3
The subject of test [6] is Echinochloa crus-galli. The test is described as above. The following applies: 1000 g effective component per hectare, day 14 after the treatment. Put shortly: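 Potted field-soil plants grown 2 weeks in a greenhouse were sprayed over the whole foliage with diluted wettable powder at 1000 L/ha, delivering 1000 g active ingredient per hectare. Herbicidal effect scored by visual criteria 14 days after treatment.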

Regarding `CCn1nc(C(=O)C2=C(O)CCCC2=O)c(=O)n(-c2ccccc2)c1=O` [I-259], the “Herbicidal effects index number, Echinochloa oryzicola” value with Echinochloa oryzicola was 10. Besides, the “Herbicidal effects index number, Monochoria vaginalis” value in the test with Monochoria vaginalis worked out at 10. Moreover, the “herbicidal effect index, S. juncoides Rocxb.” value in the test with Scirpus juncoides Rocxb. is 10. For the same compound, the “herbicidal effect index, Amaranthus retroflexus” value in the test with A. retroflexus [1] and in the test with A. retroflexus [4] was 10 throughout. Moreover, the “herbicidal effect index, Echinochloa crus-galli” value in the test on Echinochloa crus-galli [2] and in the test on Echinochloa crus-galli [6] was 10 each time. The “herbicidal effect index, Abutilon theophrasti” value in the test with Indian millet [3] is 8; with Indian millet [5], 10.
Regarding `COc1cccc(-n2c(=O)c(C(=O)C3=C(O)CCCC3=O)nn(C)c2=O)c1` [I-61], the “Herbicidal effects index number, Echinochloa oryzicola” value in the test on Echinochloa oryzicola came out at 8. For the same compound, in the test on Monochoria vaginalis, the “Herbicidal effects index number, Monochoria vaginalis” value is 10. For the same compound, the “herbicidal effect index, S. juncoides Rocxb.” value in the test with Scirpus juncoides Rocxb. worked out at 10. The “herbicidal effect index, Amaranthus retroflexus” value with A. retroflexus [1] and in the test with A. retroflexus [4] was 10 throughout. The results for the “herbicidal effect index, Echinochloa crus-galli” value with Echinochloa crus-galli [2] and in the test on Echinochloa crus-galli [6] were 8 and 9, respectively. The “herbicidal effect index, Abutilon theophrasti” value in the test on Indian millet [3] and in the test with Indian millet [5] was 10 each time.
For the compound `CCON=C(C)Cn1c(=O)c(C(=O)O)nn(C)c1=O` [V-371], the “Herbicidal effects index number, Echinochloa oryzicola” value in the test on Echinochloa oryzicola is on record as 10. The “Herbicidal effects index number, Monochoria vaginalis” value with Monochoria vaginalis worked out at 10. Besides, the “herbicidal effect index, S. juncoides Rocxb.” value with Scirpus juncoides Rocxb. stood at 9. Further, the “herbicidal effect index, Amaranthus retroflexus” value in the test on A. retroflexus [1] and in the test with A. retroflexus [4] was 10 in each case. For the same compound, the “herbicidal effect index, Echinochloa crus-galli” value with Echinochloa crus-galli [2] is listed as 9; with Echinochloa crus-galli [6], 8. Besides, the “herbicidal effect index, Abutilon theophrasti” value in the test with Indian millet [3] is on record as 10; with Indian millet [5], 9.
`CCON=C(C)Cn1c(=O)c(C(=O)C2=C(O)CCCC2=O)nn(C)c1=O` [I-478]: the “Herbicidal effects index number, Echinochloa oryzicola” value with Echinochloa oryzicola is listed as 10. Also, in the test with Monochoria vaginalis, the “Herbicidal effects index number, Monochoria vaginalis” value came to 10. Besides, the “herbicidal effect index, S. juncoides Rocxb.” value in the test on Scirpus juncoides Rocxb. was 9. Moreover, the “herbicidal effect index, Amaranthus retroflexus” value in the test on A. retroflexus [1] and with A. retroflexus [4] was 10 in each case. For the same compound, the “herbicidal effect index, Echinochloa crus-galli” value with Echinochloa crus-galli [2] was 9; in the test with Echinochloa crus-galli [6], 8. Also, the “herbicidal effect index, Abutilon theophrasti” value is 10 in the test with Indian millet [3] and 9 in the test on Indian millet [5].
Turning to `CCN(c1ccccc1)n1c(=O)c(C(=O)C2=C(O)CCCC2=O)nn(C)c1=O` [I-474], in the test with Echinochloa oryzicola, the “Herbicidal effects index number, Echinochloa oryzicola” value stood at 10. Further, in the test on Monochoria vaginalis, the “Herbicidal effects index number, Monochoria vaginalis” value came out at 10. Besides, the “herbicidal effect index, S. juncoides Rocxb.” value in the test with Scirpus juncoides Rocxb. is 10. Besides, the “herbicidal effect index, Amaranthus retroflexus” value worked out at 10 with A. retroflexus [1] and 9 with A. retroflexus [4]. Moreover, the “herbicidal effect index, Echinochloa crus-galli” value with Echinochloa crus-galli [2] and with Echinochloa crus-galli [6] was 7 throughout. The “herbicidal effect index, Abutilon theophrasti” value with Indian millet [3] is 10; in the test on Indian millet [5] it was 9.
For `COc1cc(OC)nc(-n2c(=O)c(C(=O)C3=C(O)CCCC3=O)nn(C)c2=O)n1` [I-273], in the test with Echinochloa oryzicola, the “Herbicidal effects index number, Echinochloa oryzicola” value is 9. In addition, the “Herbicidal effects index number, Monochoria vaginalis” value with Monochoria vaginalis is 9. Also, the “herbicidal effect index, S. juncoides Rocxb.” value in the test with Scirpus juncoides Rocxb. stood at 10. The “herbicidal effect index, Amaranthus retroflexus” value in the test with A. retroflexus [1] and in the test with A. retroflexus [4] was 10 in each case. The “herbicidal effect index, Echinochloa crus-galli” value with Echinochloa crus-galli [2] is 9; in the test with Echinochloa crus-galli [6], 10. In addition, the “herbicidal effect index, Abutilon theophrasti” value with Indian millet [3] stood at 7; with Indian millet [5], 9.
Turning to `Cn1nc(C(=O)C2=C(O)CCCC2=O)c(=O)n(CC2CCCO2)c1=O` (stereo not drawn) [I-339], the “Herbicidal effects index number, Echinochloa oryzicola” value in the test with Echinochloa oryzicola was 10. Moreover, in the test with Monochoria vaginalis, the “Herbicidal effects index number, Monochoria vaginalis” value is on record as 10. Further, in the test with Scirpus juncoides Rocxb., the “herbicidal effect index, S. juncoides Rocxb.” value was determined as 10. Further, the “herbicidal effect index, Amaranthus retroflexus” value in the test with A. retroflexus [1] and in the test on A. retroflexus [4] was 10 in each case. Also, the results for the “herbicidal effect index, Echinochloa crus-galli” value in the test on Echinochloa crus-galli [2] and in the test on Echinochloa crus-galli [6] were 8 and 9, respectively. For the same compound, the “herbicidal effect index, Abutilon theophrasti” value with Indian millet [3] and in the test on Indian millet [5] was 10 in each case.
For the compound `CN(c1ccc(F)cc1)n1c(=O)c(C(=O)O)nn(C)c1=O` [V-370], the “Herbicidal effects index number, Echinochloa oryzicola” value in the test on Echinochloa oryzicola turned out to be 10. Further, the “Herbicidal effects index number, Monochoria vaginalis” value with Monochoria vaginalis was found to be 10. Besides, the “herbicidal effect index, S. juncoides Rocxb.” value in the test on Scirpus juncoides Rocxb. is recorded as 10. The “herbicidal effect index, Amaranthus retroflexus” value in the test on A. retroflexus [1] and in the test on A. retroflexus [4] was 10 throughout. Also, the “herbicidal effect index, Echinochloa crus-galli” value with Echinochloa crus-galli [2] and in the test with Echinochloa crus-galli [6] was 7 each time. The “herbicidal effect index, Abutilon theophrasti” value in the test with Indian millet [3] is recorded as 10; in the test with Indian millet [5], 9.
Turning to `Cc1ccc(-n2c(=O)c(C(=O)C3=C(O)CCCC3=O)nn(C)c2=O)cc1Cl` [I-125], the “Herbicidal effects index number, Echinochloa oryzicola” value in the test on Echinochloa oryzicola turned out to be 10. Besides, in the test with Monochoria vaginalis, the “Herbicidal effects index number, Monochoria vaginalis” value came out at 10. The “herbicidal effect index, S. juncoides Rocxb.” value with Scirpus juncoides Rocxb. amounted to 10. The “herbicidal effect index, Amaranthus retroflexus” value with A. retroflexus [1] and in the test with A. retroflexus [4] was 10 throughout. The “herbicidal effect index, Echinochloa crus-galli” value was found to be 7 with Echinochloa crus-galli [2] and 10 in the test on Echinochloa crus-galli [6]. Further, the “herbicidal effect index, Abutilon theophrasti” value amounted to 8 in the test on Indian millet [3] and 10 in the test with Indian millet [5].
Take `COc1ccc(-n2c(=O)c(C(=O)C3=C(O)CCCC3=O)nn(C)c2=O)cn1` [I-287]: in the test on Echinochloa oryzicola, the “Herbicidal effects index number, Echinochloa oryzicola” value was found to be 10. Further, the “Herbicidal effects index number, Monochoria vaginalis” value with Monochoria vaginalis was 10. Also, in the test on Scirpus juncoides Rocxb., the “herbicidal effect index, S. juncoides Rocxb.” value was found to be 10. The “herbicidal effect index, Amaranthus retroflexus” value in the test with A. retroflexus [1] and in the test on A. retroflexus [4] was 10 throughout. Moreover, the “herbicidal effect index, Echinochloa crus-galli” value is 10 with Echinochloa crus-galli [2] and 8 in the test on Echinochloa crus-galli [6]. Besides, the “herbicidal effect index, Abutilon theophrasti” value in the test with Indian millet [3] and in the test with Indian millet [5] was 9 each time.
For the compound `Cc1cccc(-n2c(=O)c(C(=O)C3=C(O)CCCC3=O)nn(C)c2=O)n1` [I-279], the “Herbicidal effects index number, Echinochloa oryzicola” value in the test on Echinochloa oryzicola was 8. In addition, in the test on Monochoria vaginalis, the “Herbicidal effects index number, Monochoria vaginalis” value is 8. In the test with Scirpus juncoides Rocxb., the “herbicidal effect index, S. juncoides Rocxb.” value was 10. Moreover, the “herbicidal effect index, Amaranthus retroflexus” value in the test with A. retroflexus [1] and in the test with A. retroflexus [4] was 10 in each case. In addition, the “herbicidal effect index, Echinochloa crus-galli” value is on record as 7 in the test on Echinochloa crus-galli [2] and 9 with Echinochloa crus-galli [6]. The “herbicidal effect index, Abutilon theophrasti” value in the test with Indian millet [3] and with Indian millet [5] was 10 throughout.
For `Cn1nc(C(=O)C2=C(O)CCCC2=O)c(=O)n(-c2ccc(Cl)cc2)c1=O` [I-53], the “Herbicidal effects index number, Echinochloa oryzicola” value in the test with Echinochloa oryzicola amounted to 10. In addition, the “Herbicidal effects index number, Monochoria vaginalis” value in the test on Monochoria vaginalis is reported as 7. Further, the “herbicidal effect index, S. juncoides Rocxb.” value in the test with Scirpus juncoides Rocxb. was 10. For the same compound, the “herbicidal effect index, Amaranthus retroflexus” value with A. retroflexus [1] and with A. retroflexus [4] was 10 in each case. Moreover, the “herbicidal effect index, Echinochloa crus-galli” value with Echinochloa crus-galli [2] and with Echinochloa crus-galli [6] was 8 in each case. For the same compound, the “herbicidal effect index, Abutilon theophrasti” value in the test on Indian millet [3] and in the test on Indian millet [5] was 10 throughout.
As to `Cn1nc(C(=O)C2=C(O)CCCC2=O)c(=O)n(-c2cccc(C(F)(F)F)c2)c1=O` [I-64], the “Herbicidal effects index number, Echinochloa oryzicola” value with Echinochloa oryzicola was 10. In the test on Monochoria vaginalis, the “Herbicidal effects index number, Monochoria vaginalis” value is reported as 10. In addition, the “herbicidal effect index, S. juncoides Rocxb.” value in the test with Scirpus juncoides Rocxb. stood at 10. Also, the “herbicidal effect index, Amaranthus retroflexus” value in the test with A. retroflexus [1] and with A. retroflexus [4] was 10 throughout. The “herbicidal effect index, Echinochloa crus-galli” value in the test with Echinochloa crus-galli [2] and in the test on Echinochloa crus-galli [6] was 10 throughout. Moreover, the “herbicidal effect index, Abutilon theophrasti” value in the test with Indian millet [3] and with Indian millet [5] was 10 each time.
`COc1ccc(-n2c(=O)c(C(=O)C3=C(O)CCCC3=O)nn(C)c2=O)cc1Cl` [I-119]: the “Herbicidal effects index number, Echinochloa oryzicola” value with Echinochloa oryzicola was found to be 9. In the test on Monochoria vaginalis, the “Herbicidal effects index number, Monochoria vaginalis” value came out at 10. The “herbicidal effect index, S. juncoides Rocxb.” value in the test with Scirpus juncoides Rocxb. came to 10. In addition, the “herbicidal effect index, Amaranthus retroflexus” value in the test on A. retroflexus [1] and in the test with A. retroflexus [4] was 10 in each case. For the same compound, the “herbicidal effect index, Echinochloa crus-galli” value with Echinochloa crus-galli [2] is 8; with Echinochloa crus-galli [6] it was 9. Further, the “herbicidal effect index, Abutilon theophrasti” value in the test on Indian millet [3] and with Indian millet [5] was 9 throughout.
